Experimental data taken from PMC9699003, “Arene Variation of Highly Cytotoxic Tridentate Naphthoquinone-Based Ruthenium(II) Complexes and In-Depth In Vitro Studies” (Pharmaceutics, 2022).

What was measured:
SW480 cells [1] = test: Apoptosis assay (annexin V-FITC/PI, flow cytometry); settings: SW480, 24 h; for early apoptotic cells / late apoptotic cells / necrotic cells / viable cells: mean ± SD; for Apoptosis / necrosis induction (in words): concentrations covering the IC50 range
Description: Cell death induction was quantitatively analyzed via flow cytometry using double staining with FITC-conjugated annexin V (eBioscience, San Diego, CA, USA) and propidium iodide (PI, 1.0 mg/mL, Sigma-Aldrich). SW480 cells were seeded into 24-well plates (7 × 10^4 cells/well) in 600 µL MEM per well and allowed to settle for 24 h. Afterward, cells were exposed to two or three different concentrations (0.1–100 µM) of the compounds (based on their cytotoxic activity) for 24 h. After treatment, the medium was collected, and cells were washed once with 37 °C warm PBS and harvested. Following trypsinization, the cell suspension was added to the pre-collected medium and cells were centrifuged (300 g, 3 min). The supernatant was removed, and the cell pellet was resuspended with 1.5 µL FITC-conjugated annexin V in 150 µL binding buffer (10 mM HEPES/NaOH pH 7.4, 140 mM NaCl and 2.5 mM CaCl2) and incubated at 37 °C for 15 min. An amount of 1 µL of propidium iodide (PI, Thermo Fisher) was added shortly before flow-cytometric analysis using a Guava easyCyte 8HT instrument (Merck Millipore, Burlington, MA, USA) with InCyte software. Results were quantified by using the FlowJo software (TreeStar). At least three independent experiments were conducted.

SW480 cells [2] = test: Colony formation assay; assay type: cell-based, human; settings: SW480, 11 days, relative to untreated control
Description: For the colony formation assay, SW480 cells were seeded at a density of 350 cells/2 mL into each well of 6-well plates (CytoOne, tissue culture treated) and left to adhere for 24 h. To determine the long-term effects of the test compounds, the cells were exposed to them for 11 days at 37 °C and 5% CO2. After incubation, the wells were gently washed with 1 mL cold PBS and the colonies were fixed with 1 mL cold (4 °C) 100% methanol (Thermo Fisher, Waltham, MA, USA) for 30 min at 4 °C and washed with 1 mL PBS again. The fixed colonies were stained with 1 mL of 0.5% w/v crystal violet (Sigma-Aldrich) in methanol for 2 min and the plates were washed under tap water. After drying the plates, images of the wells were captured, and colonies were counted with the colony counting function of Fusion Fx7 software (Vilber Lourmat, Collégien, France). Results were normalized to untreated controls. Data are averaged from at least three independent experiments.

CH1/PA-1 cells = test: Cell cycle distribution (PI staining, flow cytometry); assay type: cell-based, human; settings: CH1/PA-1, 24 h
Description: (§1) For the flow-cytometric determination of cell cycle distribution, CH1/PA-1 (8 × 10^4 cells/well) and SW480 (1.2 × 10^5 cells/well) cells were seeded into 12-well plates (CytoOne, tissue culture treated) in 1 mL supplemented MEM. In the first 24 h, the cells were allowed to settle and resume exponential growth. […] Gemcitabine (Sigma-Aldrich, 0.01 and 0.05 µM) and etoposide (Sigma-Aldrich, 0.25, 0.5 and 1 µM) were used as positive controls. After removal of the treatment medium, cells were washed with 1 mL PBS and trypsinized. Cells were collected in Eppendorf tubes and centrifuged (300 g, 3 min), and the supernatant was discarded. In the following step, cells were washed with 1 mL PBS and resuspended in 500 µL PI/HFS buffer (0.1% v/v Triton X-100, 0.1% w/v sodium citrate, in PBS) containing 25 µg/mL propidium iodide (PI, 1.0 mg/mL, Sigma-Aldrich). The staining was carried out overnight at 4 °C in the dark, and 200 µL of the cell suspension was loaded into 96-well round bottom plates (Falcon). Samples were measured with a Millipore Guava easyCyte 8HT flow cytometer with GuavaSoft™ software in the InCyte-modus, and 10,000 events/sample were detected. Data were analyzed with FlowJo software v 10.8.1 (Tree Star, Ashland, OR, USA) using Watson algorithm. Percentages of cells in the three cell cycle phases (G1/G0, S and G2/M) were calculated by integrating the resulting histograms of fluorescence signals (Figures S29 and S30). Experiments were repeated at least three times. For statistical evaluation, an unpaired t-test with Welch’s correction was performed by using GraphPad PRISM software.

SW480 cells [3] = test: as above; assay type: cell-based, human; settings: SW480, 24 h
Description: as §1

SW480 cells [4] = test: Cellular ruthenium accumulation (ICP-MS); assay type: cell-based, human; settings: SW480, 2 h incubation, 37 °C
Description: SW480 cells were seeded at densities of 1.8 × 10^5 cells/well in 12-well plates (CytoOne, tissue culture treated) in 1 mL of supplemented MEM per well. (As CH1/PA-1 cells tend to detach during the required washing steps, cellular accumulation studies were performed only in SW480 cells). After 24 h, compounds dissolved in DMSO and diluted in MEM were added to the cells to final concentrations of 2 µM and 5 µM, and cells were incubated at 37 °C for 2 h. During incubation, the cell number was determined from three control wells of a plate seeded in parallel to the treatment plates. After the 2 h incubation, the medium was removed and all wells were washed with 3 × 1 mL PBS, and cells were lysed by adding 400 µL HNO3 per well for 1 h at room temperature. An amount of 300 µL of each lysate was added to 7.7 mL MilliQ water to get a total volume of 8 mL, and determination of the ruthenium content was carried out by ICP-MS. The measured amount of accumulated metal was normalized to the cell number and results were given in fg [Ru]/cell from at least three independent experiments. An Agilent 7800 ICP-MS instrument (Agilent Technologies, Tokyo, Japan) equipped with an Agilent SPS 4 autosampler (Agilent Technologies, Tokyo, Japan) was used to determine the ruthenium content. The ICP-MS parameters were tuned on a daily base to achieve high sensitivity. The ICP-MS was equipped with a MicroMist nebulizer with a sample uptake rate of ∼0.2 mL/min and standard nickel cones. The Agilent MassHunter software package (Workstation Software, Version C.01.04, 2018) was used for data evaluation. The instrumental parameters can be found in the supplementary information (Table S9).

[5] = Homo sapiens, read-out: viable cells

SMILES: CC1=C([O-])C([O-])(n2cccn2)c2ccccc2C1=O.Cc1c(C)c(C)c(C)c(C)c1C.[Ru+2] (stereo not drawn) [Compound 6]
- early apoptotic cells (SW480 cells [1]; 0.1 µM): 1.0 ± 0.7%
- late apoptotic cells (SW480 cells [1]; 0.1 µM): 4.7 ± 2.8%
- necrotic cells (SW480 cells [1]; 0.1 µM): 17 ± 27%
- viable cells (SW480 cells [1]; 0.1 µM): 77 ± 29%
- early apoptotic cells (SW480 cells [1]; 1 µM): 1.1 ± 07%
- late apoptotic cells (SW480 cells [1]; 1 µM): 2.0 ± 0.7%
- necrotic cells (SW480 cells [1]; 1 µM): 1.0 ± 1.3%
- viable cells (SW480 cells [1]; 1 µM): 96 ± 2%
- early apoptotic cells (SW480 cells [1]; 10 µM): 1.1 ± 0.3%
- late apoptotic cells (SW480 cells [1]; 10 µM): 3.7 ± 0.1%
- necrotic cells (SW480 cells [1]; 10 µM): 0.94 ± 0.52%
- viable cells (SW480 cells [1]; 10 µM): 94 ± 0%
- Apoptosis / necrosis induction (in words) (SW480 cells [1]): neither apoptotic nor necrotic cells exceeded the percentages in untreated controls
- Number of colonies (SW480 cells [2]; 0.16 µM): 28 ± 12%
- Number of colonies (SW480 cells [2]; 0.31 µM): 9.2 ± 3.2%
- Number of colonies (SW480 cells [2]; 0.63 µM): 1.2 ± 1.1%
- Cells in G1/G0 phase (CH1/PA-1 cells; 25 µM): 25.1 ± 2.5%
- Cells in G2/M phase (CH1/PA-1 cells; 25 µM): 44.2 ± 7.1%
- Cells in S phase (CH1/PA-1 cells; 25 µM): 35.0 ± 0.9%
- Cells in G1/G0 phase (CH1/PA-1 cells; 50 µM): 22.8 ± 4.7%
- Cells in G2/M phase (CH1/PA-1 cells; 50 µM): 40.8 ± 2.5%
- Cells in S phase (CH1/PA-1 cells; 50 µM): 38.6 ± 4.2%
- Cells in G1/G0 phase (CH1/PA-1 cells; 75 µM): 25.6 ± 3.5%
- Cells in G2/M phase (CH1/PA-1 cells; 75 µM): 38.4 ± 3.7%
- Cells in S phase (CH1/PA-1 cells; 75 µM): 39.4 ± 2.5%
- Cells in G1/G0 phase (SW480 cells [3]; 0.16 µM): 23.2 ± 4.1%
- Cells in G2/M phase (SW480 cells [3]; 0.16 µM): 35.7 ± 0.7%
- Cells in S phase (SW480 cells [3]; 0.16 µM): 43.7 ± 4.8%
- Cells in G1/G0 phase (SW480 cells [3]; 0.31 µM): 15.0 ± 3.8%
- Cells in G2/M phase (SW480 cells [3]; 0.31 µM): 32.6 ± 4.7%
- Cells in S phase (SW480 cells [3]; 0.31 µM): 53.7 ± 4.9%
- Cells in G1/G0 phase (SW480 cells [3]; 0.63 µM): 24.2 ± 2.0%
- Cells in G2/M phase (SW480 cells [3]; 0.63 µM): 25.6 ± 4.5%
- Cells in S phase (SW480 cells [3]; 0.63 µM): 53.5 ± 2.6%
- Ru [102]/cell (cellular accumulation) (SW480 cells [4]; 2 µM): 100 ± 15 fg
- Ru [102]/cell (cellular accumulation) (SW480 cells [4]; 5 µM): 206 ± 32 fg

SMILES: CC1=C(O)C(=O)c2ccccc2C1=O [L, 2-Hydroxy-3-methyl-1,4-naphthoquinone]
- viability at 10 µM (SW480 cells [1]; [5]): 97 ± 1%
- viability at 100 µM (SW480 cells [1]; [5]): 96%
- early apoptotic cells (SW480 cells [1]; 10 µM): 1.0 ± 0.5%
- late apoptotic cells (SW480 cells [1]; 10 µM): 1.6 ± 0.2%
- necrotic cells (SW480 cells [1]; 10 µM): 0.61 ± 0.44%
- early apoptotic cells (SW480 cells [1]; 100 µM): 1.0 ± 0.2%
- late apoptotic cells (SW480 cells [1]; 100 µM): 1.9 ± 0.2%
- necrotic cells (SW480 cells [1]; 100 µM): 0.86 ± 0.33%
- Apoptosis / necrosis induction (in words) (SW480 cells [1]): did not induce any of these processes
- Number of colonies (SW480 cells [2]; 50 µM): 62 ± 25%
- Number of colonies (SW480 cells [2]; 150 µM): 0 ± 0%
- Cells in G1/G0 phase (CH1/PA-1 cells; 100 µM): 37.0 ± 0.3%
- Cells in G2/M phase (CH1/PA-1 cells; 100 µM): 22.9 ± 2.8%
- Cells in S phase (CH1/PA-1 cells; 100 µM): 41.4 ± 2.4%
- Cells in G1/G0 phase (CH1/PA-1 cells; 150 µM): 40.8 ±1.7%
- Cells in G2/M phase (CH1/PA-1 cells; 150 µM): 19.3 ± 1.9%
- Cells in S phase (CH1/PA-1 cells; 150 µM): 42.1 ± 2.7%
- Cells in G1/G0 phase (CH1/PA-1 cells; 200 µM): 47.2 ± 1.7%
- Cells in G2/M phase (CH1/PA-1 cells; 200 µM): 16.8 ± 8.9%
- Cells in S phase (CH1/PA-1 cells; 200 µM): 37.6 ± 3.5%
- Cells in G1/G0 phase (SW480 cells [3]; 50 µM): 47.4 ± 2.0%
- Cells in G2/M phase (SW480 cells [3]; 50 µM): 14.5 ± 0.5%
- Cells in S phase (SW480 cells [3]; 50 µM): 38.8 ± 1.7%
- Cells in G1/G0 phase (SW480 cells [3]; 100 µM): 51.5 ± 5.0%
- Cells in G2/M phase (SW480 cells [3]; 100 µM): 12.1 ± 0.4%
- Cells in S phase (SW480 cells [3]; 100 µM): 35.9 ± 3.4%
- Cells in G1/G0 phase (SW480 cells [3]; 150 µM): 52.0 ± 2.9%
- Cells in G2/M phase (SW480 cells [3]; 150 µM): 11.3 ± 0.5%
- Cells in S phase (SW480 cells [3]; 150 µM): 36.3 ± 2.2%
- Cell cycle perturbation (in words) (SW480 cells [3]; tested concentrations): did not show any cell cycle perturbation

SMILES: CC1=C([O-])C([O-])(n2cccn2)c2ccccc2C1=O.[Ru+2].c1ccc(-c2ccccc2)cc1 (racemic) [Compound 5]
- early apoptotic cells (SW480 cells [1]; 0.1 µM): 3.0 ± 2.2%
- late apoptotic cells (SW480 cells [1]; 0.1 µM): 2.9 ± 1.5%
- necrotic cells (SW480 cells [1]; 0.1 µM): 1.0 ± 0.5%
- viable cells (SW480 cells [1]; 0.1 µM): 93 ± 4%
- early apoptotic cells (SW480 cells [1]; 1 µM): 1.0 ± 0.5%
- late apoptotic cells (SW480 cells [1]; 1 µM): 3.3 ± 1.3%
- necrotic cells (SW480 cells [1]; 1 µM): 0.85 ± 0.48%
- viable cells (SW480 cells [1]; 1 µM): 95 ± 2%
- early apoptotic cells (SW480 cells [1]; 10 µM): 25 ± 7%
- late apoptotic cells (SW480 cells [1]; 10 µM): 40 ± 6%
- necrotic cells (SW480 cells [1]; 10 µM): 6.3 ± 2.2%
- viable cells (SW480 cells [1]; 10 µM): 29 ± 11%
- Apoptosis / necrosis induction (in words) (SW480 cells [1]): induced apoptosis to a high extent
- Number of colonies (SW480 cells [2]; 0.039 µM): 19 ± 7%
- Number of colonies (SW480 cells [2]; 0.078 µM): 4.0 ± 2.0%
- Number of colonies (SW480 cells [2]; 0.16 µM): 0.22 ± 0.48%
- Cells in G1/G0 phase (CH1/PA-1 cells; 12.5 µM): 20.1 ± 5.0%
- Cells in G2/M phase (CH1/PA-1 cells; 12.5 µM): 39.1 ± 5.4%
- Cells in S phase (CH1/PA-1 cells; 12.5 µM): 43.1 ± 6.3%
- Cells in G1/G0 phase (CH1/PA-1 cells; 25 µM): 19.2 ± 4.8%
- Cells in G2/M phase (CH1/PA-1 cells; 25 µM): 46.7 ± 1.9%
- Cells in S phase (CH1/PA-1 cells; 25 µM): 38.0 ± 4.0%
- Cells in G1/G0 phase (CH1/PA-1 cells; 50 µM): 17.5 ± 1.8%
- Cells in G2/M phase (CH1/PA-1 cells; 50 µM): 46.8 ± 1.8%
- Cells in S phase (CH1/PA-1 cells; 50 µM): 39.3 ± 1.4%
- Cells in G1/G0 phase (SW480 cells [3]; 0.039 µM): 32.3 ± 12.9%
- Cells in G2/M phase (SW480 cells [3]; 0.039 µM): 30.5 ± 6.2%
- Cells in S phase (SW480 cells [3]; 0.039 µM): 38.8 ± 7.2%
- Cells in G1/G0 phase (SW480 cells [3]; 0.078 µM): 19.5 ± 4.3%
- Cells in G2/M phase (SW480 cells [3]; 0.078 µM): 35.9 ± 3.5%
- Cells in S phase (SW480 cells [3]; 0.078 µM): 46.9 ± 7.7%
- Cells in G1/G0 phase (SW480 cells [3]; 0.16 µM): 15.5 ± 1.3%
- Cells in G2/M phase (SW480 cells [3]; 0.16 µM): 27.4 ± 1.3%
- Cells in S phase (SW480 cells [3]; 0.16 µM): 57.1 ± 0.1%
- Ru [102]/cell (cellular accumulation) (SW480 cells [4]; 2 µM): 107 ± 14 fg
- Ru [102]/cell (cellular accumulation) (SW480 cells [4]; 5 µM): 336 ± 10 fg
